pIC50: −log10 of the molar value.
Tests used:
CDK2/CycE = biological target: T1, CDK2/CycE (Homo sapiens, UniProt P24941); test: CDK2/CycE kinase assay (TR-FRET, Method 2a); format: biochemical; details: 10 μM ATP
T1 construct: GST; purchased ProQinase GmbH (Freiburg, Germany); host or cells: insect cells (Sf9)
Description: 2a. CDK2/CycE Kinase Assay:
CDK2/CycE-inhibitory activity of compounds of the present invention was quantified employing the CDK2/CycE TR-FRET assay as described in the following paragraphs:
Recombinant fusion proteins of GST and human CDK2 and of GST and human CycE, expressed in insect cells (Sf9) and purified by Glutathion-Sepharose affinity chromatography, were purchased from ProQinase GmbH (Freiburg, Germany). As substrate for the kinase reaction biotinylated peptide biotin-Ttds-YISPLKSPYKISEG (C-terminus in amid form) was used which can be purchased e.g. from the company JERINI Peptide Technologies (Berlin, Germany).
(§1) For the assay 50 nl of a 100 fold concentrated solution of the test compound in DMSO was pipetted into a black low volume 384 well microtiter plate (Greiner Bio-One, Frickenhausen, Germany), 2 μl of a solution of CDK2/CycE in aqueous assay buffer [50 mM Tris/HCl pH 8.0, 10 mM MgCl2, 1.0 mM dithiothreitol, 0.1 mM sodium ortho-vanadate, 0.01% (v/v) Nonidet-P40 (Sigma)] were added and the mixture was incubated for 15 min at 22° C. to allow pre-binding of the test compounds to the enzyme before the start of the kinase reaction. […] The concentration of CDK2/CycE was adjusted depending of the activity of the enzyme lot and was chosen appropriate to have the assay in the linear range, typical concentrations were in the range of 130 ng/mL. The reaction was stopped by the addition of 5 μl of a solution of TR-FRET detection reagents (0.2 μM streptavidine-XL665 [Cisbio Bioassays, Codolet, France] and 1 nM anti-RB(pSer807/pSer811)-antibody from BD Pharmingen [#558389] and 1.2 nM LANCE EU-W1024 labeled anti-mouse IgG antibody [Perkin-Elmer, product no. AD0077]) in an aqueous EDTA-solution (100 mM EDTA, 0.2% (w/v) bovine serum albumin in 100 mM HEPES pH 7.5).
(§2) The resulting mixture was incubated 1 h at 22° C. to allow the formation of complex between the phosphorylated biotinylated peptide and the detection reagents. Subsequently the amount of phosphorylated substrate was evaluated by measurement of the resonance energy transfer from the Eu-chelate to the streptavidine-XL. Therefore, the fluorescence emissions at 620 nm and 665 nm after excitation at 350 nm was measured in a TR-FRET reader, e.g. a Rubystar (BMG Labtechnologies, Offenburg, Germany) or a Viewlux (Perkin-Elmer). The ratio of the emissions at 665 nm and at […] was taken as the measure for the amount of phosphorylated substrate. The data were normalised (enzyme reaction without inhibitor=0% inhibition, all other assay components but no enzym=100% inhibition).

CDK9/CycT1 = biological target: T2, CDK9/CycT1 (Homo sapiens, UniProt P50750); test: CDK9/CycT1 high ATP kinase assay (TR-FRET, Method 1b); format: biochemical; details: 2 mM ATP; for pIC50: Method 1b; for Selectivity high ATP CDK9 over high ATP CDK2: IC50 (high ATP CDK2)/IC50 (high ATP CDK9): Methods 1b and 2b
T2 construct: Recombinant full-length His-tagged human CDK9 and CycT1; His; purchased Invitrogen PV4131; host or cells: insect cells
Procedure: 1b. CDK9/CycT1 High ATP Kinase Assay
CDK9/CycT1-inhibitory activity of compounds of the present invention at a high ATP concentration after preincubation of enzyme and test compounds was quantified employing the CDK9/CycT1 TR-FRET assay as described in the following paragraphs.
Recombinant full-length His-tagged human CDK9 and CycT1, expressed in insect cells and purified by Ni-NTA affinity chromatography, were purchase from Invitrogen (Cat. No PV4131). As substrate for the kinase reaction biotinylated peptide biotin-Ttds-YISPLKSPYKISEG (C-terminus in amid form) was used which can be purchased e.g. from the company JERINI peptide technologies (Berlin, Germany).
as §1, with “CDK9/CycT1” for “CDK2/CycE”, “0.5 μg/mL.” for “130 ng/mL.”
as §2, with “HTRF” for “TR-FRET”

T2 sequence (P50750 whole entry): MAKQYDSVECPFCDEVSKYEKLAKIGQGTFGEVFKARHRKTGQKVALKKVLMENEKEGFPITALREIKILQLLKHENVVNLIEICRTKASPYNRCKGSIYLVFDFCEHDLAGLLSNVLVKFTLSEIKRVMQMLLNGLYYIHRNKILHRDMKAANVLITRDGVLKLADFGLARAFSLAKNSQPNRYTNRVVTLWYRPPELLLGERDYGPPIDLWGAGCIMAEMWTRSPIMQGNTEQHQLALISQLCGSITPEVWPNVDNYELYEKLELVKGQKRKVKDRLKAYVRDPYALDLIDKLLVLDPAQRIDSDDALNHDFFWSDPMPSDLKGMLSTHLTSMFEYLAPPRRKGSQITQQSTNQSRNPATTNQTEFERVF
T2 sequence (O60563 whole entry partner): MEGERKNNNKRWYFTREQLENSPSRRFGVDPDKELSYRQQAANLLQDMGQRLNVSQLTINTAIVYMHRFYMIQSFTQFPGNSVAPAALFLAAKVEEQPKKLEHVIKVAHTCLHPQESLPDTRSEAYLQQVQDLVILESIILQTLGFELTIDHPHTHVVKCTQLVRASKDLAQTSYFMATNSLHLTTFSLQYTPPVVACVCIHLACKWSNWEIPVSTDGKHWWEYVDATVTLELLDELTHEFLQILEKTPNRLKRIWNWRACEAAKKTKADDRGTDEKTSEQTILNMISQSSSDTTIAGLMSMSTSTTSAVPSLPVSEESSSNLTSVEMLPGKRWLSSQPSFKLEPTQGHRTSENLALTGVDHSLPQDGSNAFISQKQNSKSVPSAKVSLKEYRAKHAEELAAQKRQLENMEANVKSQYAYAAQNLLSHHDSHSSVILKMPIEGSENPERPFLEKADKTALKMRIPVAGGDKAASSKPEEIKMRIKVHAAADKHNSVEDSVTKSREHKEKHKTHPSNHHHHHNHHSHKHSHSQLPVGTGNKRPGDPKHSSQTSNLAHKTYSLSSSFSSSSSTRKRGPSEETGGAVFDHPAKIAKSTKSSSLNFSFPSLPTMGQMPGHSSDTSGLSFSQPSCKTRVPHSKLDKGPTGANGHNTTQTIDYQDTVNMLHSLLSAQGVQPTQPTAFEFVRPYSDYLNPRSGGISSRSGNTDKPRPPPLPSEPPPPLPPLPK

pIC50 (CDK2/CycE) | pIC50 (CDK9/CycT1) | Selectivity high ATP CDK9 over high ATP CDK2: IC50 (high ATP CDK2)/IC50 (high ATP CDK9) (CDK9/CycT1) | Structure (SMILES)
6.16 | 7.90 | 634 | CS(=O)(Cc1cc2nc(c1)Nc1cc(c(F)cn1)-c1ccc(F)cc1OCCCCN2)=NC(=O)OCc1ccccc1 (racemic) [Example 2, (rac)-Benzyl[{[16,20-difluoro-3,4,5,6-tetrahydro-2H,12H-11,7-(azeno)-13,17-(metheno)-1,6,12,14-benzoxatriazacyclononadecin-9-yl]methyl}(methyl)oxido-λ^6-sulfanylidene]carbamate]
7.36 | 8.41 | 167 | CS(=N)(=O)Cc1cc2nc(c1)Nc1cc(c(F)cn1)-c1ccc(F)cc1OCCCCN2 (racemic) [Example 3, (rac)-16,20-Difluoro-9-[(S-methylsulfonimidoyl)methyl]-3,4,5,6-tetrahydro-2H,12H-11,7-(azeno)-13,17-(metheno)-1,6,12,14-benzoxatriazacyclononadecine]
6.56 | 8.22 | 1375 | C[S+]([O-])Cc1cc2nc(c1)OCCCCc1cc(F)ccc1-c1cc(ncc1F)N2 (racemic) [Example 5, (rac)-2,18-Difluoro-9-[(methylsulfinyl)methyl]-13,14,15,16-tetrahydro-6H-7,11-(azeno)-5,1-(metheno)-12,4,6-benzoxadiazacyclooctadecine]
7.57 | 8.72 | 32.1 | CC(C)(C)OC(=O)N=S(C)(=O)Cc1cc2nc(c1)Nc1cc(c(F)cn1)-c1ccc(F)cc1OCCCN2 (racemic) [Example 7, (rac)-tert-butyl[{[15,19-difluoro-2,3,4,5-tetrahydro-11H-10,6-(azeno)-16,12-(metheno)-1,5,11,13-benzoxatriazacyclooctadecin-8-yl]methyl}(methyl)oxido-λ^6-sulfanylidene]carbamate]
8.04 | 9.15 | 41.4 | CS(=N)(=O)Cc1cc2nc(c1)Nc1cc(c(F)cn1)-c1ccc(F)cc1OCCCN2 (racemic) [Example 8, (rac)-15,19-difluoro-8-[(S-methylsulfonimidoyl)methyl]-2,3,4,5-tetrahydro-11H-10,6-(azeno)-16,12-(metheno)-1,5,11,13-benzoxatriazacyclooctadecine]
7.02 | 8.17 | 37.2 | CC(C)(C)OC(=O)N=S(C)(=O)Cc1cc2nc(c1)Nc1cc(c(F)cn1)-c1ccc(F)cc1OCCCCCN2 (racemic) [Example 9, (rac)-tert-butyl[{[17,21-difluoro-2,3,4,5,6,7-hexahydro-13H-12,8-(azeno)-14,18-(metheno)-1,7,13,15-benzoxatriazacycloicosin-10-yl]methyl}(methyl)oxido-λ^6-sulfanylidene]carbamate]
7.55 | 9.00 | 102 | CS(=N)(=O)Cc1cc2nc(c1)Nc1cc(c(F)cn1)-c1ccc(F)cc1OCCCCCN2 (racemic) [Example 10, (rac)-17,21-difluoro-10-[(S-methylsulfonimidoyl)methyl]-2,3,4,5,6,7-hexahydro-13H-12,8-(azeno)-14,18-(metheno)-1,7,13,15-benzoxatriazacycloicosine]
7.47 | 8.59 | 31 | CN1CCCCOc2cc(F)ccc2-c2cc(ncc2F)Nc2cc(CS(C)(=N)=O)cc1n2 (racemic) [Example 11, (rac)-16,20-difluoro-6-methyl-9-[(S-methylsulfonimidoyl)methyl]-3,4,5,6-tetrahydro-2H-7,11-(azeno)-17,13-(metheno)-1,6,12,14-benzoxatriazacyclononadecine]
– | 8.52 | 426 | CC(C)(C)OC(=O)N=S(C)(=O)Cc1cc2cc(c1)OCCCNc1cc(F)ccc1-c1nc(ncc1F)N2 (racemic) [Example 13, (rac)-tert-butyl[{[15,19-difluoro-1,2,3,4-tetrahydro-16,12-(azeno)-6,10-(metheno)-5,1,11,13-benzoxatriazacyclooctadecin-8(11H)-yl]methyl}(methyl)oxido-λ^6-sulfanylidene]carbamate]
– | 9.00 | 94 | CS(=N)(=O)Cc1cc2cc(c1)OCCCNc1cc(F)ccc1-c1nc(ncc1F)N2 (racemic) [Example 14, rac-15,19-difluoro-8-[(S-methylsulfonimidoyl)methyl]-1,2,3,4-tetrahydro-16,12-(azeno)-6,10-(metheno)-5,1,11,13-benzoxatriazacyclooctadecine]
6.58 | 8.33 | 713 | CC(C)(C)OC(=O)N=S(C)(=O)Cc1cc2cc(c1)OCCCCNc1cc(F)ccc1-c1nc(ncc1F)N2 (racemic) [Example 15, (rac)-tert-butyl[{[16,20-difluoro-2,3,4,5-tetrahydro-1H,12H-13,17-(azeno)-11,7-(metheno)-6,1,12,14-benzoxatriazacyclononadecin-9-yl]methyl}(methyl)oxido-λ^6-sulfanylidene]carbamate]
– | 7.89 | 915 | CC(C)(C)OC(=O)N=S(C)(=O)Cc1cc2cc(c1)OCCCCSc1cc(F)ccc1-c1nc(ncc1F)N2 (racemic) [Example 21, (rac)-tert-butyl[{[16,20-difluoro-2,3,4,5-tetrahydro-12H-17,13-(azeno)-11,7-(metheno)-6,1,12,14-benzoxathiadiazacyclononadecin-9-yl]methyl}(methyl)oxido-λ^6-sulfanylidene]carbamate]
– | 8.35 | 244 | CS(=N)(=O)Cc1cc2cc(c1)OCCCCSc1cc(F)ccc1-c1nc(ncc1F)N2 (racemic) [Example 22, (rac)-16,20-difluoro-9-[(S-methylsulfonimidoyl)methyl]-2,3,4,5-tetrahydro-12H-17,13-(azeno)-11,7-(metheno)-6,1,12,14-benzoxathiadiazacyclononadecine]

From patent publication US10214542B2, “Modified macrocyclic compounds” (BAYER PHARMA AKTIENGESELLSCHAFT, priority 2015, dated 2019)
